Counter-ions that a name gives are not always drawn. Like-named read-outs stand apart in the source and are kept apart here.
Key:
EV-A71 Tainan/4643/98 = test: CPE antiviral assay, EV-A71 Tainan/4643/98 in RD cells; type: cell-based; conditions: read-out: EC50 against EV-A71 Tainan
CVB3 = test: CPE antiviral assay, CVB3 in Vero C1008 cells; type: cell-based
Vero C1008 cells = test: Cytotoxicity in Vero C1008 cells, neutral red method; type: cell-based; conditions: read-out: CC50 in Vero C1008 cells
CVB3 2C protein = CVB3 2C protein (Coxsackievirus B3, UniProt P03313); test: Differential scanning fluorimetry; type: binding; conditions: 1 mM compound, 4.5 μM 2C, DSF
CVB3 2C protein, sequence (P03313 1101-1429): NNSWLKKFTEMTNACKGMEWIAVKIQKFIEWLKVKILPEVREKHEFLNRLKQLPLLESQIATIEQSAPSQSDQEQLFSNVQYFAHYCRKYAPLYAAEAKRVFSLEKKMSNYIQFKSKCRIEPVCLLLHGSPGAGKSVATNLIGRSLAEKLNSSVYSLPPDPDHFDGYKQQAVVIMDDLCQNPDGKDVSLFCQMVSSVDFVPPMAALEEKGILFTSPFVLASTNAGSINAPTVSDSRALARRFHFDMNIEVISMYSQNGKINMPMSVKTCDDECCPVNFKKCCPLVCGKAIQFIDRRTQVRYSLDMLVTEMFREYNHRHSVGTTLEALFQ

RD cells = test: Cytotoxicity in RD cells, neutral red method; conditions: read-out: CC50 in RD cells, mean ± SD of three repeats
[1] = Enterovirus B, CVB3, Vero C1008, read-out: EC50 against CVB3
[2] = read-out: EC50 against CVB3, Vero C1008 cells, CPE assay

## CCCCOc1cc(C(=O)NCCN(CC)CC)c2ccccc2n1 [dibucaine]
EV-A71 Tainan/4643/98; Enterovirus A, EVA71, RD
  EC50: > 10 µM
CVB3; [1]
  EC50: 1.3 µM

## CNCCC(Oc1ccc(C(F)(F)F)cc1)c1ccccc1 (stereo not drawn) [fluoxetine]
Vero C1008 cells
  CC50: 11 µM

## COc1ccc(CC(C)NCC(O)c2ccc(O)c(NC=O)c2)cc1 (stereo not drawn) [formoterol]
EV-A71 Tainan/4643/98; Enterovirus A, EVA71, RD
  EC50: > 100 µM
CVB3; [1]
  EC50: 9.9 µM
Vero C1008 cells
  CC50: > 300 µM

## N=C(N)N [guanidine]
EV-A71 Tainan/4643/98; RD cells, CPE assay
  EC50: 902 µM
CVB3; [2]
  EC50: 224 µM
Vero C1008 cells
  CC50: > 3000 µM
CVB3 2C protein
  Tm shift of CVB3 2C protein: 1.77 °C
RD cells
  CC50: > 1000 µM

## Cc1ccc2c(c1)c1c3n2CCNC3CCC1 (stereo not drawn) [pirlindole mesylate]
EV-A71 Tainan/4643/98; RD cells, CPE assay
  EC50: > 20 µM
CVB3; [2]
  EC50: 3.6 µM
Vero C1008 cells
  CC50: 40.5 µM
RD cells
  CC50: 19 µM

Reference: article PMC7390679 (Bioorganic chemistry, 2020)
